Results: patent US10526316B2, “Quinoxaline and pyridopyrazine derivatives as PI3Kβ inhibitors” (Janssen Pharmaceutica NV, priority 2015, dated 2020)
pIC50, pKd: −log10 of the molar value. Like-named read-outs stand apart in the source and are kept apart here.

What was measured:
PI3Kβ = target: T1, PI3Kβ (Homo sapiens, UniProt P42338); experiment: Enzyme binding assay (KINOMEscan, DiscoveRx); settings: PIK3Cβ_h, read-out: Kd PIK3Cβ_h
T1 construct: purchased DiscoveRx Corporation, San Diego (contract service, KINOMEscan)
How it was run: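 Kinase binding affinities were measured with KINOMEscan technology. Results are given as Kd, the inhibitor binding constant, in nM.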

PI3Kδ = target: T2, PI3Kδ (Homo sapiens, UniProt O00329); experiment: Enzyme binding assay (KINOMEscan, DiscoveRx); settings: PIK3Cδ_h
T2 construct: purchased DiscoveRx Corporation, San Diego (contract service, KINOMEscan)
T2 sequence (O00329 1-1044): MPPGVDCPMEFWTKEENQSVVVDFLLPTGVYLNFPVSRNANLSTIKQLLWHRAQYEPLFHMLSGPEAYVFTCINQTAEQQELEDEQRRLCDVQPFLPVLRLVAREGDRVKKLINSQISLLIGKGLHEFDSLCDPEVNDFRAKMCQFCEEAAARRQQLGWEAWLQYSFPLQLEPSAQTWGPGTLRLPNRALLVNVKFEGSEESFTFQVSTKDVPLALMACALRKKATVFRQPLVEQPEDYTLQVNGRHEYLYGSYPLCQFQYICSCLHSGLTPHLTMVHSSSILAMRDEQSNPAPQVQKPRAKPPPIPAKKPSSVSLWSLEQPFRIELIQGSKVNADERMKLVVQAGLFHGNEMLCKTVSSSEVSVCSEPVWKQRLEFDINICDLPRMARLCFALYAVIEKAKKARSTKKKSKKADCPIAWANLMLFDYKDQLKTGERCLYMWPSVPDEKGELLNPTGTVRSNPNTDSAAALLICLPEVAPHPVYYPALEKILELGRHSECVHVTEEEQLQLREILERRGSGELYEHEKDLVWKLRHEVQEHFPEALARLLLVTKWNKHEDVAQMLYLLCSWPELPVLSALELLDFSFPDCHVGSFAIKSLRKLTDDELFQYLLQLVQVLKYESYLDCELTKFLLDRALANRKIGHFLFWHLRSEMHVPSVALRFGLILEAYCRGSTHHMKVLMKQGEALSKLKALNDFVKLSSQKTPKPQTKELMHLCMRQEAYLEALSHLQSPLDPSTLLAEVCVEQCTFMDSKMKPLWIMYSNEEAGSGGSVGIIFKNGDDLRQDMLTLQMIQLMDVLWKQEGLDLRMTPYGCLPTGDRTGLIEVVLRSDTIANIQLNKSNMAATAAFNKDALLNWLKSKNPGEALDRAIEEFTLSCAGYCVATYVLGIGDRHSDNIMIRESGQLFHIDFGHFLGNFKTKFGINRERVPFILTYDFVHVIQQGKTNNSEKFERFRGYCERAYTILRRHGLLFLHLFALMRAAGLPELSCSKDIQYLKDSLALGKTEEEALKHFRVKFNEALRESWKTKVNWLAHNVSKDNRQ
How it was run: (§1)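 Binding affinities were measured on the KINOMEscan platform.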

kinase enzymes [1] = target: T3, kinase enzymes (Homo sapiens, UniProt P42336); experiment: Enzyme binding assay (KINOMEscan, DiscoveRx), further kinases of Table A; settings: PIK3Cα_h
T3 construct: purchased DiscoveRx Corporation, San Diego (contract service, KINOMEscan)
How it was run: as §1

kinase enzymes [2] = target: T4, kinase enzymes (Homo sapiens, UniProt P42345); experiment: as above; settings: MTOR_h
T4 construct: purchased DiscoveRx Corporation, San Diego (contract service, KINOMEscan)
How it was run: as §1

kinase enzymes [3] = target: T5, kinase enzymes (Homo sapiens, UniProt P48736); experiment: as above; settings: PIK3Cγ_h
T5 construct: purchased DiscoveRx Corporation, San Diego (contract service, KINOMEscan)
How it was run: as §1

[4] = test system: Akt phosphorylated at Ser473 in PC-3 cells; experiment: Cellular assay: phosphorylation of Akt at Ser473 in PC-3 cells (MSD ELISA); assay type: cell-based; settings: PC-3 cells, 60 min compound incubation, MSD ELISA, read-out: IC50 pAkt_S473
How it was run: (§2)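 After lysis of treated cells (60 min, 37° C, 0.3% DMSO), phospho-Akt levels were measured by MSD electrochemiluminescence ELISA. Potency was derived from concentration-response curves fitted over five concentrations.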

[5] = test system: Akt phosphorylated at Thr308 in PC-3 cells; experiment: Cellular assay: phosphorylation of Akt at Thr308 in PC-3 cells (MSD ELISA); assay type: cell-based; settings: PC-3 cells, 60 min compound incubation, MSD ELISA, read-out: IC50 pAkt_Thr308
How it was run: as §2

T1 sequence (P42338 whole entry): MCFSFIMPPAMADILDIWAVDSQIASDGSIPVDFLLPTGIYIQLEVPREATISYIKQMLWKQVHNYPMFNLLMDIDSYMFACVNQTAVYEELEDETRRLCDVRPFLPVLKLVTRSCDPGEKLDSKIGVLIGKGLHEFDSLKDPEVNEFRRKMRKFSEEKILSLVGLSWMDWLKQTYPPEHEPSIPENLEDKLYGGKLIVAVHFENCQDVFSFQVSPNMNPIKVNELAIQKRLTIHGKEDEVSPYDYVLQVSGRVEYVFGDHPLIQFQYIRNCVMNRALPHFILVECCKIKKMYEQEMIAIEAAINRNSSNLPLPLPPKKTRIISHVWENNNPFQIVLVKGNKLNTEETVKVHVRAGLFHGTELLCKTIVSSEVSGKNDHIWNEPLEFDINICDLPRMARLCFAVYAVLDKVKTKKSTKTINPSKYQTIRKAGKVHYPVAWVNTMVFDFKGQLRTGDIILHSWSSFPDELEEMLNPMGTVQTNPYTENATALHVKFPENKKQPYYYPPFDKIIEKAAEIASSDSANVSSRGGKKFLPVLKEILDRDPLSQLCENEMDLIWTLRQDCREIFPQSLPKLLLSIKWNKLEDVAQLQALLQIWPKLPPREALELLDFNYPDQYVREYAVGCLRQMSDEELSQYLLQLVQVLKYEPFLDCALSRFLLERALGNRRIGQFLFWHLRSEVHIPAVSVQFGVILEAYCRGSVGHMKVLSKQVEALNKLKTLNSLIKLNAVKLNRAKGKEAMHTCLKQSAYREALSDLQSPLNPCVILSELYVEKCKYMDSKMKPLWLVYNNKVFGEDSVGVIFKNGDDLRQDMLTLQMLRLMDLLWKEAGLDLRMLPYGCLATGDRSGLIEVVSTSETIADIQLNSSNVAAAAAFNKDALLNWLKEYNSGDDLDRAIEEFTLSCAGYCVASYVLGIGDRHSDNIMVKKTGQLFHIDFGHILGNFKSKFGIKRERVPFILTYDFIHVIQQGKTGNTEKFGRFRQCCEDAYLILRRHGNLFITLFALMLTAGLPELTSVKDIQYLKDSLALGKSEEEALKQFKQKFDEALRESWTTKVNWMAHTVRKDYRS
T3 sequence (P42336 whole entry): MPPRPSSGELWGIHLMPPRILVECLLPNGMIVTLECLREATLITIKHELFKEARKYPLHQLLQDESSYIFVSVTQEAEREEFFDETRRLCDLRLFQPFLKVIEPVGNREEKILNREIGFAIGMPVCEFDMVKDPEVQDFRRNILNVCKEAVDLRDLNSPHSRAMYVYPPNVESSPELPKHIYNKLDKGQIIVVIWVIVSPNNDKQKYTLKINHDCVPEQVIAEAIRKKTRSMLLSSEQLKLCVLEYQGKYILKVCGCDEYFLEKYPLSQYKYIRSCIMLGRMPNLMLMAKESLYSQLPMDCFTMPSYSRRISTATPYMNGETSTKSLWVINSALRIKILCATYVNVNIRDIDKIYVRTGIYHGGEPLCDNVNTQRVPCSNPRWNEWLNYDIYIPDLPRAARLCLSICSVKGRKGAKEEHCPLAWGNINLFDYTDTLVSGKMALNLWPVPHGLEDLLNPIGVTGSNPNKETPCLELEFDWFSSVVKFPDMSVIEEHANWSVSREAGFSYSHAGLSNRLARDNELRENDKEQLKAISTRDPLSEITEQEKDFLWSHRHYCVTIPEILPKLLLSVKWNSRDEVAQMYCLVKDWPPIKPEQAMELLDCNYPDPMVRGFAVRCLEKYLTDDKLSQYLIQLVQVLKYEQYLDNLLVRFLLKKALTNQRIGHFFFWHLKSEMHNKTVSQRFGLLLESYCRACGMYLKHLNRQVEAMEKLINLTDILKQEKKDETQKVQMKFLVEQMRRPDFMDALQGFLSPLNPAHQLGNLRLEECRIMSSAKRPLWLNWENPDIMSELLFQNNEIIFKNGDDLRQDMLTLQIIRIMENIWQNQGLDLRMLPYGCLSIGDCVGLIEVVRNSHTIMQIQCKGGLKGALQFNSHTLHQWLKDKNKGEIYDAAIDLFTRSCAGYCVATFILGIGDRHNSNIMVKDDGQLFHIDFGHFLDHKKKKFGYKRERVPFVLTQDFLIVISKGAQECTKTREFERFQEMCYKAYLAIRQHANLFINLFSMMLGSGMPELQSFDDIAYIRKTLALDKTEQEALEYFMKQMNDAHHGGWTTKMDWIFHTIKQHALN
T5 sequence (P48736 whole entry): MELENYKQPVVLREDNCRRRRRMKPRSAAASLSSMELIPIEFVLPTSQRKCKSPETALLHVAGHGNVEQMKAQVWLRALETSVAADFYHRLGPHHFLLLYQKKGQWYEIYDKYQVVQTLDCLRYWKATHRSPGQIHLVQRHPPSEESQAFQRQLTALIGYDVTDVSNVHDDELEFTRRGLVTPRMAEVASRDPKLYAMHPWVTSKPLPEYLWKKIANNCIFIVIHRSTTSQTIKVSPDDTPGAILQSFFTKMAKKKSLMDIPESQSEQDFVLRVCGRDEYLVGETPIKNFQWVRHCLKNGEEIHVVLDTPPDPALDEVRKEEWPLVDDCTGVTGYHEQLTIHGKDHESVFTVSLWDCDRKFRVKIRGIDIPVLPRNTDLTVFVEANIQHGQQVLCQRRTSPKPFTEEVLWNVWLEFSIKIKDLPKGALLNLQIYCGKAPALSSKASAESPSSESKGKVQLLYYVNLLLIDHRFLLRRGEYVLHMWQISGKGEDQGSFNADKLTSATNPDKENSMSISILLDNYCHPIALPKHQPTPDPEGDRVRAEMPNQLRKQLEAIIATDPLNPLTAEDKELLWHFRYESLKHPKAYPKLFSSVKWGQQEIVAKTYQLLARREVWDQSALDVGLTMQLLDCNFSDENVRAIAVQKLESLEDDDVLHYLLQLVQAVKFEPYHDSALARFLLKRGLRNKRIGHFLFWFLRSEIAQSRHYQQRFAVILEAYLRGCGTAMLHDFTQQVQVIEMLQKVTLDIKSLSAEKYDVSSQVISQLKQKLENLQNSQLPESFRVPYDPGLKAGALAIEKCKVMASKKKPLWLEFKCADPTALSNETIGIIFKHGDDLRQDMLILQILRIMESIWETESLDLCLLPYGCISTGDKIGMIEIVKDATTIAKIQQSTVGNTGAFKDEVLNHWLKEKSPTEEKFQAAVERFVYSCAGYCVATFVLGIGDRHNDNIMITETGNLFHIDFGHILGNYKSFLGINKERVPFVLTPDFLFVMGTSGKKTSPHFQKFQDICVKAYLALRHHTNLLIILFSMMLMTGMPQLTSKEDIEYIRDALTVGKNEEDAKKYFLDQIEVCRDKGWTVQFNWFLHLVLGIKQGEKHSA

Row | SMILES | pKd (PI3Kβ) | pKd (PI3Kδ) | pKd (kinase enzymes [1]) | pKd (kinase enzymes [2]) | pKd (kinase enzymes [3]) | pIC50 [4] | pIC50 [5] | melting point [°C] | pIC50 ([4]; Homo sapiens, PC-3, 1 h) | pIC50 ([5]; Homo sapiens, PC-3, 1 h)
1 | CC(Nc1ccc(F)c(F)c1)c1cc(C(=O)NC[C@@H](C)O)cc2ncc(N3CCOCC3)nc12 (single isomer, unassigned) [Compound 346a] | 8.52 | 6.02 | 5.60 | 4.51 | 5.02 | 6.75 | 7.17 | 107 |  | 
2 | CNCCNC(=O)c1cc(C(C)Nc2cc(F)cc(Cl)c2)c2nc(N3CCOCC3)cnc2c1 (stereo not shown) [Compound 147] | 9.40 | 6.89 | 6.11 | < 4.52 | 5.94 |  |  | 80 | 8.00 | 8.22
3 | CN[C@@H]1CCN(C(=O)c2cc(C(C)Nc3ccc(F)c(F)c3)c3nc(N4CCOCC4)cnc3c2)C1 (single isomer, unassigned) [Compound 371a] | 9.52 | 7.08 | 5.82 | < 4.52 | 5.98 | 8.00 | 8.70 | 114 |  | 
4 | CC(Nc1cc(F)cc(F)c1)c1cc(CNCCS(C)(=O)=O)cc2ncc(N3CCOCC3)nc12 (stereo not shown) [Compound 173] | 9.00 | 6.43 | 6.08 | 4.61 | 5.45 |  |  | 80 | 7.11 | 7.28
5 | CCc1cccc(NC(C)c2cc(C(=O)N3CCOCC3)cc3ncc(N4CCOCC4)nc23)c1 (stereo not shown) [Compound 125] | 7.17 | 5.23 | 5.19 | < 4.52 | < 4.52 |  |  | 80 | < 6.29 | < 6.29
6 | OCCNCc1cc(C2CCCN2c2cc(F)cc(F)c2)c2nc(N3CCOCC3)cnc2c1 (stereo not shown) [Compound 14] | 9.70 | 7.44 | 6.76 | < 5.00 | 6.64 |  |  | 140 | 7.51 | 7.96
7 | CC(Nc1cccc(F)c1)c1cc(C(=O)NC[C@@H](C)O)cc2ncc(N3CCOCC3)nc12 (single isomer, unassigned) [Compound 338b] | 6.07 | < 4.52 | 4.64 | 4.70 | 5.63 | < 6.29 | < 6.29 | 90.8 |  | 
8 | CC(Nc1cc(F)cc(F)c1)c1cc(C(=O)N2CCNC(C(F)(F)F)C2)cc2ncc(N3CCOCC3)nc12 (stereo not shown) [Compound 237] | 9.00 | 6.86 | 6.54 | < 4.52 | 5.03 |  |  | 80 | 7.70 | 7.96
9 | CC(Nc1cc(F)cc(F)c1)c1cc(C(=O)N(C)CCO)cc2ncc(N3CCOCC3)nc12 (stereo not shown) [Compound 145] | 9.00 | 6.99 | 6.27 | 4.63 | 5.73 |  |  | 80 | ~7.49 | 8.05
10 | CNC(=O)c1cc(C2CCCN2c2cc(F)cc(F)c2)c2nc(N3CCOCC3)cnc2c1 (single isomer, unassigned) [Compound 40] | 9.00 | 7.46 | 7.25 | 4.76 | 6.51 |  |  | 80 | 8.15 | 8.40
11 | CC(Nc1cc(F)cc(F)c1)c1cc(CO)cc2ncc(N3CCOCC3)nc12 (single isomer, unassigned) [Compound 154b] | 6.31 | 4.83 | 4.68 | 4.60 | 5.11 | < 6.29 | < 6.29 | 90 |  | 
12 | CN(C(=O)c1cc(NCc2cc(F)cc(F)c2)c2nc(N3CCOCC3)cnc2c1)[C@@H]1CCNC1 [Compound 355] | 7.89 | 5.54 | 5.32 | 4.88 | 4.68 |  |  | 80 | < 6.29 | 6.36
13 | CNCCNC(=O)c1cc(C(C)N(C)c2cccc(F)c2)c2nc(N3CCOCC3)cnc2c1 (stereo not shown) [Compound 130] | 9.30 | 6.87 | 6.44 | 5.21 | 6.62 |  |  | 159 | 7.05 | 7.19
14 | CNCCNC(=O)c1cc(C(C)Nc2cc(F)ccc2F)c2nc(N3CCOCC3)cnc2c1 (stereo not shown) [Compound 132] | 9.30 | 6.94 | 6.08 | 4.94 | 5.66 |  |  | 80 | 7.28 | 7.43
15 | CC(Nc1cc(F)cc(F)c1)c1cc(CNCC(F)F)cc2ncc(N3CCOCC3)nc12 (stereo not shown) [Compound 164] | 8.40 | 5.96 | 5.62 | < 4.52 | 4.86 |  |  | 116 | 6.84 | 7.15
16 | CC(Nc1cc(F)cc(F)c1)c1cc(C(=O)NC[C@@H](C)O)cc2ncc(N3CCOCC3)nc12 (single isomer, unassigned) [Compound 201] | 8.70 | 6.15 | 5.84 | 4.78 | 5.35 | 7.38 | 7.59 | 70 |  | 
17 | OC1CN(Cc2cc(C3CCCN3c3cc(F)cc(F)c3)c3nc(N4CCOCC4)cnc3c2)C1 (stereo not shown) [Compound 76] | 10.00 | 7.72 | 7.30 | < 4.52 | 6.60 |  |  | 90 | 8.15 | 8.15
